Source: ChEMBL document CHEMBL4610081, “Anti-inflammatory Metabolites from Chaetomium nigricolor” (J Nat Prod, 2020)
pIC50: −log10 of the molar value.

Test system: RAW264.7
Experiment: Antiinflammatory activity against mouse RAW264.7 cells assessed as inhibition of LPS-induced NO production preincubated for 3 hrs followed by LPS-stimulation and measured after 24 hrs by Griess reagent based assay
Assay type: functional, cell-based

Q: For `COc1cc(OC)c2c(O)c3c(=O)cc(C)oc3c(-c3c(OC)cc4cc(O)c5c(=O)cc(C)oc5c4c3OC)c2c1` (atropisomer aS) [FONSECINONE A], which Activity is on record?
A: Dose-dependent effect

Q: And the pIC50?
A: 5.15
